Key:
[1] = Solubility in toluene (hot toluene trituration); assay type: physicochemical; details: crude solids digested in hot toluene for 1 hour
Description: The crude solids (1 g) were digested in hot toluene (15 mL) for 1 hour. The slurry was cooled to room temperature and the solids were isolated by filtration. The solids were dried at 80° C., under vacuum, to afford 0.86 g (86%). […] Based on this observation, in the following experiment toluene was further tried as an anti-solvent.

PP2A = details: used alone (Lu et al. 2009a); cited from earlier work
[2] = in vivo; with temozolomide, doxorubicin, docetaxel; cited from earlier work
[3] = Solubility in water (water/2-propanol recrystallization); assay type: physicochemical; details: crude solids, ambient temperature
Description: The crude solids (0.5 g) were dissolved in water (1 mL) and 2-propanol (5 mL) was charged. The resulting slurry was stirred at room temperature for 1 hour, and then isolated by filtration. The solids were washed with 2-propanol (to cover the solids) and air dried to afford 0.1 g (20% recovery yield).

CN1CCN(C(=O)C2C(C(=O)O)[C@H]3CC[C@@H]2O3)CC1 (stereo in doubt) [LB100, 3-(4-methylpiperazine-1-carbonyl)-7-oxabicyclo[2.2.1] heptane-2-carboxylic acid]
solubility in toluene [1]: low solubility of the material in toluene
anti-cancer activity (PP2A): has anti-cancer activity when used alone
potentiation of anti-tumor activity of standard cytotoxic anti-cancer drugs [2]: significantly potentiates in vivo
toxicity in combination with cytotoxic anti-cancer drugs [2]: without observable increase in toxicity
solubility in water [3]: high solubility in water

Reference: patent US9994584B2, “Process of synthesizing 3-(4-methylpiperazine-1-carbonyl)-7-oxabicyclo[2.2.1] heptane-2-carboxylic acid” (LIXTE BIOTECHNOLOGY, INC., priority 2014, dated 2018)
